Test results: patent US20170173008A1, “ANTIMICROBIAL AGENTS AND SCREENING METHODS” (PRESIDENT AND FELLOWS OF HARVARD COLLEGE, priority 2014, published 2017)

Target: T1, DsbB (Escherichia coli, UniProt P0A6M2, C49V/C8A)
T1 construct: expressed in transfected cells; host or cells: E. coli DHB7935 (HK295 ΔdsbB λatt::malF-lacZ102, φ80::pDSW206dsbBhis6-c-myc)
Assay: cell-based
Type: cell-based, E. coli
Conditions: for EC50 RATIO (EC50 compound 16/EC50): E. coli DHB7935, liquid media

T1 sequence (P0A6M2 whole entry C8A/C49V): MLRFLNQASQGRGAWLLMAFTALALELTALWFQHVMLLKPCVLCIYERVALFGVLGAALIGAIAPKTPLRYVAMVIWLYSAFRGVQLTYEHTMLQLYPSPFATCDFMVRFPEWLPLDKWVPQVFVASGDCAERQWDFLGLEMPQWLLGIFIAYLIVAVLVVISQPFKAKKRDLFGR

| SMILES | EC50 [µM] | fold more inhibitory than compound 16 [fold] | EC50 RATIO (EC50 compound 16/EC50) |
| --- | --- | --- | --- |
| O=c1c(Cl)c(Cl)cnn1Cc1ccc([N+](=O)[O-])cc1 [Compound 16.8] | 38.7 | – | – |
| N#Cc1cccc(Cn2ncc(Cl)c(Cl)c2=O)c1 [Compound 16.9] | 509 | – | – |
| COc1cccc(Cn2ncc(Cl)c(Cl)c2=O)c1 [Compound 16.11] | 232 | – | – |
| O=c1c(Cl)c(Cl)cnn1Cc1ccccc1Br [Compound 16.12] | 0.47 | 10 | 10.77 |
| Cc1ccccc1Cn1ncc(Cl)c(Cl)c1=O [Compound 16.13] | 3.56 | – | 1.43 |
| N#Cc1ccccc1Cn1ncc(Cl)c(Cl)c1=O [Compound 16.14] | 13.2 | – | 0.39 |
| O=c1c(Br)c(Br)cnn1Cc1ccccc1 [Compound 16.17] | 13.2 | – | – |
| O=c1c(Cl)c(Cl)cnn1-c1ccccc1Cl [Compound 16.20] | 1.34 | – | 3.80 |
| O=c1c(Cl)c(Cl)cnn1Cc1c(F)cccc1Cl [Compound 16.22] | 18.1 | – | – |
| O=c1c(Cl)c(Cl)cnn1Cc1ccccc1F [Compound 16.23] | 3.09 | – | 1.65 |
| O=c1c(Cl)c(Cl)cnn1-c1ccccc1F [Compound 16.24] | 13.7 | – | 0.73 |
| O=c1cc(Cl)cnn1Cc1ccccc1Cl [Compound 16.25, 5-chloro-2-(2-chlorobenzyl)pyridazin-3(2H)-one] | 8.37 | – | – |
| Cc1c(Cl)cnn(Cc2ccccc2Cl)c1=O [Compound 16.26, 5-chloro-2-(2-chlorobenzyl)-4-methylpyridazin-3(2H)-one] | 18.7 | – | – |
| O=c1c(Br)c(Br)cnn1Cc1ccccc1Cl [Compound 16.27, 4,5-dibromo-2-(2-chlorobenzyl)pyridazin-3(2H)-one] | 0.025 | – | – |
| O=c1c(Cl)c(Cl)cnn1Cc1ccccc1C(F)(F)F [Compound 16.35, 4,5-dichloro-2-(2-(trifluoromethyl)benzyl)pyridazin-3(2H)-one] | 2.81 | – | – |
| O=c1c(Cl)c(Cl)cnn1Cc1ccccc1OC(F)(F)F [Compound 16.36, 4,5-dichloro-2-(2-(trifluoromethoxy)benzyl)pyridazin-3(2)-one] | 7.12 | – | – |
| O=c1c(Cl)c(Cl)cnn1Cc1c(Cl)cccc1Cl [Compound 16.37, 4,5-dichloro-2-(2,6-dichlorobenzyl)pyridazin-3(2H)-one] | 6570 | – | – |
| O=c1c(Cl)c(Cl)cnn1Cc1ccncc1Cl [Compound 16.39] | 15.2 | – | – |
| O=c1c(Cl)c(Cl)cnn1Cc1ncccc1Cl [Compound 16.40, 4,5-dichloro-2-((3-chloropyridin-2-yl)methyl)pyridazin-3(2H)-one] | 10.8 | – | – |
| O=c1c(Cl)c(Cl)cnn1Cc1cccs1 [Compound 16.41, 4,5-dichloro-2-(thiophen-2-ylmethyl)pyridazin-3(2H)-one] | 33.1 | – | – |
| O=c1c(Cl)c(Cl)cnn1Cc1sccc1Cl [Compound 16.42, 4,5-dichloro-2-((3-chlorothiophen-2-yl)methyl)pyridazin-3(2H)-one] | 1.45 | – | – |
| O=c1c(Br)c(Cl)cnn1Cc1ccccc1Cl [Compound 16.43, 4-bromo-5-chloro-2-(2-chlorobenzyl)pyridazin-3(2H)-one] | 0.29 | – | – |
| O=c1c(Cl)c(Br)cnn1Cc1ccccc1Cl [Compound 16.44, 5-bromo-4-chloro-2-(2-chlorobenzyl)pyridazin-3(2H)-one] | 0.32 | – | – |
